The values that follow come from the kinase profiling compilation of Christmann-Franck et al. (2016).

Each structure is given as a SMILES string.

Some targets named below: TAOK1 (human) (UniProt Q7L7X3); RIOK1 (human) (UniProt Q9BRS2); STK17A (human) (UniProt Q9UEE5); PIK3CG (human) (UniProt P48736); CLK3 (human) (UniProt P49761); CDK16 (human) (UniProt Q00536); DAPK2 (human) (UniProt Q9UIK4); DAPK3 (human) (UniProt O43293); RPS6KA5 KD2 (human) (UniProt O75582); HIPK1 (human) (UniProt Q86Z02); PRKD1 (human) (UniProt Q15139); CLK1 (human) (UniProt P49759); STK17B (human) (UniProt O94768); MAP3K5 (human) (UniProt Q99683); RIPK4 (human) (UniProt P57078); MYLK4 (human) (UniProt Q86YV6); CAMKK1 (human) (UniProt Q8N5S9); CHUK (human) (UniProt O15111); PIP4K2B (human) (UniProt P78356); DMPK (human) (UniProt Q09013); MAP4K4 (human) (UniProt O95819); PRKD3 (human) (UniProt O94806); MAP2K4 (human) (UniProt P45985); MYLK (human) (UniProt Q15746); PIP5K1A (human) (UniProt Q99755); CSNK1E (human) (UniProt P49674); CSNK1G3 (human) (UniProt Q9Y6M4); PDGFRB (human) (UniProt P09619); STK33 (human) (UniProt Q9BYT3).

Common to all, as to assay: KINOMEscan competition binding
What all share (conditions): compound 10.0 µM

The target of experiment [1] is JAK3 JH1 catalytic (human) (UniProt P52333).
The target of experiment [2] is TYK2 JH2 pseudokinase (human) (UniProt P29597).
The test system of experiment [3] is EGFR (human), P00533 [747-751 del / S ins].
For experiment [4], the system named is KIT (human), P10721 [D816V].
Experiment [5] has as its system KIT (human), P10721 [V559D/T670I].
For experiment [6], the system named is FLT3 (human), P36888 [K663Q].
The test system of experiment [7] is FLT3 (human), P36888 [N841I].
The subject of experiment [8] is FLT3 (human), P36888 [D835H].
The test system of experiment [9] is EGFR (human), P00533 [G719S].
Experiment [10] has as its system FLT3 (human), P36888 [ITD].

CAMKK1 (human), sequence (Q8N5S9 whole entry, looked up): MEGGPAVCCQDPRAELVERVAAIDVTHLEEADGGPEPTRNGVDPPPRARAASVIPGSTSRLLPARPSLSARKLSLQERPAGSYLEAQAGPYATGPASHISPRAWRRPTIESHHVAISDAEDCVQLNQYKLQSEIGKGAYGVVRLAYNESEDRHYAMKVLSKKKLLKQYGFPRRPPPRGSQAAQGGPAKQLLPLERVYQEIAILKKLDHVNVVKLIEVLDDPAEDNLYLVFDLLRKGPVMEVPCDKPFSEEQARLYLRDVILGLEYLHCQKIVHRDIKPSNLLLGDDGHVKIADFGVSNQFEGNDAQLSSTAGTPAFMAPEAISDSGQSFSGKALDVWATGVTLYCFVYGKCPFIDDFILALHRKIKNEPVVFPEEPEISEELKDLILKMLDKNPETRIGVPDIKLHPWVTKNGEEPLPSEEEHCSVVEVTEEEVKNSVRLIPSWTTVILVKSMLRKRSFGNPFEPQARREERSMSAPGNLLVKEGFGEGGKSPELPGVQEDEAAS
PRKD1 (human), sequence (Q15139 whole entry, looked up): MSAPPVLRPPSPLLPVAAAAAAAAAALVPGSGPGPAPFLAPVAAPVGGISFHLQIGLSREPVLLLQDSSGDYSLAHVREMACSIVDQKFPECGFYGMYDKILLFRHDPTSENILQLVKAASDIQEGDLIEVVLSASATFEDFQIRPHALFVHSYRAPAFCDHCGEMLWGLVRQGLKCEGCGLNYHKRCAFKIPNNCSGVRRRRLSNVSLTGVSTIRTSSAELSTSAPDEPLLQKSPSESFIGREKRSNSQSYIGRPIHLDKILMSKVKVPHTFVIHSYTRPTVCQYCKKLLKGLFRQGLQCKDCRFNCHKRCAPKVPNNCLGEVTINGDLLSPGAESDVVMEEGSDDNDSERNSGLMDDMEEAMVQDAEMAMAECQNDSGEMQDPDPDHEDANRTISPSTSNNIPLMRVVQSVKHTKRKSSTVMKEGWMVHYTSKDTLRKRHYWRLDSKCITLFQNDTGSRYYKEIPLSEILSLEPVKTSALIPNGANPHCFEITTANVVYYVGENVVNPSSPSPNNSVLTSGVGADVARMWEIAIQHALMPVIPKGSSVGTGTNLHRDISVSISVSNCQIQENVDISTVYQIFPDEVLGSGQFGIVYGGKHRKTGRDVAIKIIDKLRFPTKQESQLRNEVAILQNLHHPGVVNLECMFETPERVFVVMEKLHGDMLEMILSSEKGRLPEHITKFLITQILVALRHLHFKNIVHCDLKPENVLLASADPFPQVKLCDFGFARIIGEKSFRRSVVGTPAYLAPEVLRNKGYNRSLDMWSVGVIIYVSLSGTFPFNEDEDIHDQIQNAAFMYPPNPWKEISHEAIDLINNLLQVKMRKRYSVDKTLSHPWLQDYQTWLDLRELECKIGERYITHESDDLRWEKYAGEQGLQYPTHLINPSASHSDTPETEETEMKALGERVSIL
HIPK1 (human), sequence (Q86Z02 whole entry, looked up): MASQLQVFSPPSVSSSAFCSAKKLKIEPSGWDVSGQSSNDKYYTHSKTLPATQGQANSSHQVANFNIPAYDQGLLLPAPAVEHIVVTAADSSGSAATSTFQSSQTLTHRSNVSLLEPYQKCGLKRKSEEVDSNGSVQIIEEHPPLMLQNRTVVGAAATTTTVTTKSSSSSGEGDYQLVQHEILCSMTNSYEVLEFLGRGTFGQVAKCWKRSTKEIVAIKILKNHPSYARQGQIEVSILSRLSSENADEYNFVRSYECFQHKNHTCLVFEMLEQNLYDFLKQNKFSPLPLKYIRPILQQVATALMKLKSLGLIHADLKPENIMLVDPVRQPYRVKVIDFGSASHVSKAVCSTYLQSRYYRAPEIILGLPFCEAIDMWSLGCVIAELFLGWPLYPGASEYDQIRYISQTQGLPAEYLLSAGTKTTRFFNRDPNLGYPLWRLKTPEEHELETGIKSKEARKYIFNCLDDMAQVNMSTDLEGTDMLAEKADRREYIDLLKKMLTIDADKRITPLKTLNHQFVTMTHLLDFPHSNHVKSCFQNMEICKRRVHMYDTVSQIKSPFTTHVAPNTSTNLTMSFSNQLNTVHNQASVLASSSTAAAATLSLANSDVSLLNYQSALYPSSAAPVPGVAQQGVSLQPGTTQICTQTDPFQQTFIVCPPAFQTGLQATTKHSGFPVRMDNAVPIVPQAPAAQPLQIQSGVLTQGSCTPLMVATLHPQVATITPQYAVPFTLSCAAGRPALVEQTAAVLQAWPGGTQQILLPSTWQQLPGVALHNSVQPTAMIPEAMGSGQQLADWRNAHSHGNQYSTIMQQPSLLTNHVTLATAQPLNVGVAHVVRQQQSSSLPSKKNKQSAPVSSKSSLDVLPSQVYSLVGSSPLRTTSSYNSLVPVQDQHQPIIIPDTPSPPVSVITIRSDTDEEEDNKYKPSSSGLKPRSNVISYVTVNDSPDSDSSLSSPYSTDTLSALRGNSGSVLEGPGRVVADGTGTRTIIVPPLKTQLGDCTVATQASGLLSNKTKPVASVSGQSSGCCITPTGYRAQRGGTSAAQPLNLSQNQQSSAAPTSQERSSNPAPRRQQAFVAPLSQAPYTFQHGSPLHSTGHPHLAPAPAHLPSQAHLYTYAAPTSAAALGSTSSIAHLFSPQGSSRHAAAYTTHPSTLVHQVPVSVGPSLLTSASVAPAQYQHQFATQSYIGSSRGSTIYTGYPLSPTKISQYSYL
CLK1 (human), sequence (P49759 whole entry, looked up): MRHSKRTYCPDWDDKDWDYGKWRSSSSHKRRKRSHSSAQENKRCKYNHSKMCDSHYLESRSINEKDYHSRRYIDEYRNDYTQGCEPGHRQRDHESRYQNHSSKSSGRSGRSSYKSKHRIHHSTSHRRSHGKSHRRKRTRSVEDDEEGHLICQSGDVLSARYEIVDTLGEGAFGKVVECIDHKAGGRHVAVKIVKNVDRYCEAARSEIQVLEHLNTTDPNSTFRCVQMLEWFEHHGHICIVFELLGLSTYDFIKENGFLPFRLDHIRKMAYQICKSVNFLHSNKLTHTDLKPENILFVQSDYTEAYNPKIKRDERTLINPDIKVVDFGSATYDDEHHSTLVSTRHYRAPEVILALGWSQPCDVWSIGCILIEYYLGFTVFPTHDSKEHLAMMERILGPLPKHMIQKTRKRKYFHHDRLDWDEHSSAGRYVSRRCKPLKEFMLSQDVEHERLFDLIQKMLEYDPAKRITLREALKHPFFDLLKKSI
MAP3K5 (human), sequence (Q99683 whole entry, looked up): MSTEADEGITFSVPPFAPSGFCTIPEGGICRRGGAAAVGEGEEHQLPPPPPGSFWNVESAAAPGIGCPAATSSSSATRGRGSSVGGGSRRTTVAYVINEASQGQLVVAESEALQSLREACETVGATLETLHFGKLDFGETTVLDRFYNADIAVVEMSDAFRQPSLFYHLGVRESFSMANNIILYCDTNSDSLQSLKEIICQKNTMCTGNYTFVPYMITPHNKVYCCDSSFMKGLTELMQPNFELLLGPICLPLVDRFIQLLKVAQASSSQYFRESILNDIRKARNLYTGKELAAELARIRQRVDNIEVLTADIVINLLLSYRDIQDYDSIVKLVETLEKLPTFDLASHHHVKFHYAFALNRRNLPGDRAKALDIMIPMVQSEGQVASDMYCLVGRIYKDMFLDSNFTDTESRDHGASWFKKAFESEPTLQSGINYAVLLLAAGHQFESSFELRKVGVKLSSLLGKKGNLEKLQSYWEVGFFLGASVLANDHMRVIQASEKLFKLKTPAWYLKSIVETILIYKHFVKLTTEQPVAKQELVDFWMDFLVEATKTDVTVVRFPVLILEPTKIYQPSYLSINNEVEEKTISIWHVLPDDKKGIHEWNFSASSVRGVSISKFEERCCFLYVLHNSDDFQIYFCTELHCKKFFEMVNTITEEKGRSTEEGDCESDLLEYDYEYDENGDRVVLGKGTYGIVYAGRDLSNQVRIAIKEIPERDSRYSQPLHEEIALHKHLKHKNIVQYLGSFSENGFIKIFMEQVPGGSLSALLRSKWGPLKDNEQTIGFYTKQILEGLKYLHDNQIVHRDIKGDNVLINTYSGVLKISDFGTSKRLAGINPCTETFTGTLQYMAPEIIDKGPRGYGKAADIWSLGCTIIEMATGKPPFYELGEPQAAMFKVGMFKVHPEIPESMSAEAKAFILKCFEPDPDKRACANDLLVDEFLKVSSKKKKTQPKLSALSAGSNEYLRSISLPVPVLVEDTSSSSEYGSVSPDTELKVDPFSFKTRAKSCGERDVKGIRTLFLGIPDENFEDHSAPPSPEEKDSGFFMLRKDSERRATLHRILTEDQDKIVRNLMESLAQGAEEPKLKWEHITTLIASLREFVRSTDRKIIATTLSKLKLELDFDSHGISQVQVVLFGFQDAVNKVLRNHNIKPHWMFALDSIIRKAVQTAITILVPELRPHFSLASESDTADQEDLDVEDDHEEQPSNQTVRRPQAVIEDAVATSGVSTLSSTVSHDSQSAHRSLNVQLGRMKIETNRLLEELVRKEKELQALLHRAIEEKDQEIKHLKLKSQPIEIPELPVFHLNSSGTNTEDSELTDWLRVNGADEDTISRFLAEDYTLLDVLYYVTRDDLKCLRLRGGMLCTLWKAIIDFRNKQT
STK17B (human), sequence (O94768 whole entry, looked up): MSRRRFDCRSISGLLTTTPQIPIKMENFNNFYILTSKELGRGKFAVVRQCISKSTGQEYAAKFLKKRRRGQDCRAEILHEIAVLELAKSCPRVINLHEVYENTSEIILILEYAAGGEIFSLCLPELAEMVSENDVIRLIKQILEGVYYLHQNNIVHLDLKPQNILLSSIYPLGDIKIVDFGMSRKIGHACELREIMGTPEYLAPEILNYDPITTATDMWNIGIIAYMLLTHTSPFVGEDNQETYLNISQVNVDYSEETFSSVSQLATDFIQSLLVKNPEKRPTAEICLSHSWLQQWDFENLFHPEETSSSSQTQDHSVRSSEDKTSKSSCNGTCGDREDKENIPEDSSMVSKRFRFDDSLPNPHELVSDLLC

In the case of `N=C1NC(=O)/C(=C/c2ccc(-c3ccc(F)cc3O)o2)S1`, the kinase still bound, per cent of control on TAOK1 (human) stood at 0%; on RIOK1 (human), 23%; at STK17A (human), 0.3%; at PIK3CG (human), 0%; on CLK3 (human) it was 11%; at CDK16 (human), 0.1%. Further, the kinase still bound, per cent of control on DAPK2 (human) amounted to 4.1%; at DAPK3 (human), 8.6%; in experiment [1], 26%; at RPS6KA5 KD2 (human) it was 24%; at HIPK1 (human), 0.15%; at PRKD1 (human), 32%. For the same compound, the kinase still bound, per cent of control turned out to be 1.3% on CLK1 (human); 2.9% on STK17B (human); 14% at MAP3K5 (human); 4.2% on RIPK4 (human); 8.1% on MYLK4 (human); 31% in experiment [2]. Moreover, the kinase still bound, per cent of control came out at 16% in [3], 14% on CAMKK1 (human) and 15% at CHUK (human).

In the case of `CS(=O)(=O)Nc1ccc(-c2cc(/C=C3\SC(=N)NC3=O)c[nH]c2=O)cc1`, the kinase still bound, per cent of control was found to be 19% in experiment [4]; 13% on PIP4K2B (human); 6.4% on DMPK (human); 23% on TAOK1 (human); 11% on RIOK1 (human); 3.4% at STK17A (human). The kinase still bound, per cent of control was found to be 2.4% on CLK3 (human); 2.2% on DAPK2 (human); 32% in experiment [5]; 4.4% on DAPK3 (human); 29% in [1]; 25% on MAP4K4 (human). For the same compound, the kinase still bound, per cent of control on RPS6KA5 KD2 (human) worked out at 0.15%; at HIPK1 (human), 0.5%; on PRKD1 (human), 15%; at CLK1 (human), 1.6%; in experiment [6] it was 13%; at STK17B (human), 31%. For the same compound, the kinase still bound, per cent of control on MAP3K5 (human) came to 4.6%; in [7], 30%; on CAMKK1 (human) it was 33%; on CHUK (human), 15%; at PRKD3 (human), 33%.

Take `N=C1NC(=O)/C(=C/c2ccc(-c3ccccc3O)o2)S1`: the kinase still bound, per cent of control at PIP4K2B (human) amounted to 28%; on TAOK1 (human), 0%; at RIOK1 (human) it was 21%; at STK17A (human) it was 0.4%; at CLK3 (human), 12%; on CDK16 (human), 0.15%. The kinase still bound, per cent of control at DAPK2 (human) amounted to 3.2%; at DAPK3 (human) it was 7.4%; in experiment [1], 14%; on RPS6KA5 KD2 (human), 29%; on HIPK1 (human), 1.4%; at PRKD1 (human), 26%. Moreover, the kinase still bound, per cent of control at CLK1 (human) came to 3.4%; at MAP2K4 (human) it was 16%; at STK17B (human), 2%; at MAP3K5 (human), 19%; at RIPK4 (human), 5.2%; on MYLK4 (human), 5.9%. The kinase still bound, per cent of control was 14% at MYLK (human); 11% on PIP5K1A (human); 31% in experiment [3]; 13% on CAMKK1 (human); 9.5% on CHUK (human); 28% at PRKD3 (human).

On to `N=C1NC(=O)/C(=C/c2ccc(-c3ccc(C(N)=O)cc3O)o2)S1`, for which the kinase still bound, per cent of control at DMPK (human) came out at 14%; at TAOK1 (human), 2.2%; at STK17A (human), 0.3%; on PIK3CG (human), 2.6%; at CLK3 (human) it was 4.2%; at CDK16 (human) it was 0.65%. In addition, the kinase still bound, per cent of control on DAPK2 (human) turned out to be 24%; at DAPK3 (human), 25%; in [1], 32%; at HIPK1 (human), 0.35%; on CLK1 (human), 0.55%; at STK17B (human) it was 1.5%. In addition, the kinase still bound, per cent of control was found to be 31% at MAP3K5 (human); 7.9% on RIPK4 (human); 6% on MYLK4 (human); 0.25% in [2]; 16% at CAMKK1 (human); 16% at CHUK (human).

Turning to `CS(=O)(=O)Nc1ccc(-c2cncc(/C=C3\SC(=N)NC3=O)c2)cc1`, the kinase still bound, per cent of control is 2.2% in experiment [4]; 22% at DMPK (human); 1.4% at TAOK1 (human); 7.8% at RIOK1 (human); 0.45% at STK17A (human); 32% on PIK3CG (human). Further, the kinase still bound, per cent of control on DAPK2 (human) is 14%; in experiment [5] it was 31%; on DAPK3 (human) it was 25%; on MAP4K4 (human) it was 5.5%; on CSNK1E (human) it was 2.8%; on HIPK1 (human), 19%. Moreover, the kinase still bound, per cent of control at CSNK1G3 (human) stood at 1%; on PRKD1 (human), 22%; on PDGFRB (human), 7.2%; at STK17B (human), 5.4%; in experiment [8] it was 8.7%; on RIPK4 (human) it was 5.8%. Moreover, the kinase still bound, per cent of control at STK33 (human) amounted to 18%; in experiment [9], 24%; on MYLK4 (human), 29%; in experiment [7], 28%; in experiment [3] it was 24%; on CHUK (human), 19%. In addition, the figures for the kinase still bound, per cent of control (at PRKD3 (human); in [10]) were 24% and 25%, respectively.
